Experiments:
Type in all cases: cell-based
STING variants (WT) = target: T1, STING variants (WT) (Homo sapiens, UniProt Q86WV6); assay: SEAP reporter assay in HEK-Blue ISG KO-STING cells transfected with STING WT variant (Method 2, 1 ng vector); settings: compound concentration 2.5 (mM as printed); 24 h; SEAP signal ratio to 0.5% DMSO
T1 construct: host or cells: HEK-Blue ISG KO-STING cells (Invivogen, hkb-kostg)
Excerpt: (§1) Example II: STING Variants (WT & HAQ) Activation by Compounds in HEK-Blue™ ISG KO-STING Cells (Method 2)
(§2) Activation of STING can be determined using a SEAP reporter assay in HEK-Blue™ ISG KO-STING cells (Invivogen, cat #hkb-kostg) transfected with plasmids expressing STING variants (WT & HAQ) (referred to WO2017/175147A1). STING variants (WT & HAQ) vector were constructed based on STING-232H vector (Origene, RC208418). GFP vector (VT2069) was bought from Youbio. The detailed protocol as follows: HEK-Blue™ ISG KO-STING cells were harvest and seeding into 96 well plate and the final cell number was 0.8×10^5 cells/well. Transfections were prepared using Lipofectamine 2000 (Invitrogen, Cat #11668-027) following the manufacturer's instructions (Lipo2000:DNA=1:10), 20 ul of transfection suspension containing 1 ng (WT variant) or 0.0625 ng (HAQ variant) STING vector was added to cell culture plate and incubated at 37° C., 5% CO2 for 24 h. After 24 hours incubation, compounds were added at proper concentration, the final DMSO concentration was 0.5%. After 24h incubation, the supernatant was collected to detect SEAP signal using Great EscAPe SEAP chemiluminescence KIT (Clontech, cat #631738) and cells were collected to detect cell viability using CellTiter-Glo Luminescent Cell Viability Assay(Promega, cat #G7573) following the manufacturer's instructions. The data were described by the ratio of the stimulating signal of compounds to 0.5% DMSO.

STING variants (HAQ) = target: T2, STING variants (HAQ) (Homo sapiens, UniProt Q86WV6, G230A/R293Q/R71H); assay: SEAP reporter assay in HEK-Blue ISG KO-STING cells transfected with STING HAQ variant (Method 2, 0.0625 ng vector); settings: compound concentration 5 (mM as printed); 24 h; SEAP signal ratio to 0.5% DMSO
T2 construct: host or cells: HEK-Blue ISG KO-STING cells (Invivogen, hkb-kostg)
Excerpt: as §1, §2

STING = target: T3, STING (Homo sapiens, UniProt Q86WV6, G230A/H232R/R293Q/R71H); assay: IFNβ release from THP1 by STING activation (hIFNβ ELISA); settings: THP1 cells, 24 h, IFN-β in supernatant; inactive = IFNβ not detected at the maximum concentration of compounds
T3 construct: THP1 was purchased from National Collection of Authenticated Cell Cultures (Cat #TCHu 57); host or cells: THP1
How it was run: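 THP1 cells from log-phase culture, suspended at 2×10^6 cells/ml, were treated with an 8-point, 3-fold compound series (0.2% DMSO final) for 24 h at 37°C, 5% CO2. Secreted IFN-β in supernatant was quantified by human IFNβ ELISA, and EC50 was obtained by curve fitting.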

T2 sequence (Q86WV6 whole entry R71H/G230A/R293Q): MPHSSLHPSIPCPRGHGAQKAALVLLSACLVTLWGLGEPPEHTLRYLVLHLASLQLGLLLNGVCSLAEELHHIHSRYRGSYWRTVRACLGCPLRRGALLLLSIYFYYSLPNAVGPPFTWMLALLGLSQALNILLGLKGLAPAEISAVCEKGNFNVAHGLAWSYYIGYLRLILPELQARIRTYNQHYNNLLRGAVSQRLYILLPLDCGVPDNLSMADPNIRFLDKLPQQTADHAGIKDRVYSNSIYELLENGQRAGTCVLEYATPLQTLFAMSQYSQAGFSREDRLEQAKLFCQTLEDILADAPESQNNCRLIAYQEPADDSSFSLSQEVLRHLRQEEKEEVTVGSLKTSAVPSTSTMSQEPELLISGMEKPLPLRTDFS
T3 sequence (Q86WV6 whole entry R71H/G230A/H232R/R293Q): as the sequence (Q86WV6 whole entry R71H/G230A/R293Q) above, with H232R counted along it

Row | SMILES | Fold change related to DMSO control, WT (STING variants (WT)) [fold] | Fold change related to DMSO control, HAQ (STING variants (HAQ)) [fold] | EC50 (STING) [µM] | hIFNβ ELISA (EC50, μM) (STING)
1 | CCn1nc(C)c(F)c1C(=O)Nc1nc2cc(C(N)=O)cc3c2n1[C@@H](C(C)C)CO3 [Example 54, (S)-2-(1-Ethyl-4-fluoro-3-methyl-1H-pyrazole-5-carboxamido)-3-isopropyl-3,4-dihydro-5-oxa-1,2a-diazaacenaphthylene-7-carboxamide] | 2.29 | 7.79 | > 16.7 | 
2 | CC[C@H]1COc2cc(C(N)=O)cc3nc(NC(=O)c4c(Cl)c(C)nn4CC)n1c23 [Example 48, (S)-2-(4-Chloro-1-ethyl-3-methyl-1H-pyrazole-5-carboxamido)-3-ethyl-3,4-dihydro-5-oxa-1,2a-diazaacenaphthylene-7-carboxamide] | 1.85 | 3.46 |  | inactive
3 | CCn1nc(C)cc1C(=O)Nc1nc2cc(C(N)=O)cc3c2n1C[C@@H](CO)O3 [Example 52, (S)-2-(1-ethyl-3-methyl-1H-pyrazole-5-carboxamido)-4-(hydroxymethyl)-3,4-dihydro-5-oxa-1,2a-diazaacenaphthylene-7-carboxamide] | 0.82 | 0.82 |  | inactive
4 | CCn1nc(C)c(Cl)c1C(=O)Nc1nc2cc(C(N)=O)cc3c2n1CC(C)(C)CO3 [Example 45, 1-(4-Chloro-1-ethyl-3-methyl-1H-pyrazole-5-carboxamido)-8,8-dimethyl-8,9-dihydro-7H-6-oxa-2,9a-diazabenzo[cd]azulene-4-carboxamide] | 1.18 | 1.59 |  | inactive
5 | CCn1nc(C)c(Cl)c1C(=O)Nc1nc2cc(C(N)=O)cc3c2n1[C@@H](C(C)C)CO3 [Example 55, (S)-2-(4-chloro-1-ethyl-3-methyl-1H-pyrazole-5-carboxamido)-3-isopropyl-3,4-dihydro-5-oxa-1,2a-diazaacenaphthylene-7-carboxamide] | 1.38 | 2.96 |  | inactive
6 | C=CCCCn1nc(C)cc1C(=O)Nc1nc2cc(C(N)=O)cc3c2n1[C@@H](CCCN)CO3 [Example 50, (S)-3-(3-Aminopropyl)-2-(3-methyl-1-(pent-4-en-1-yl)-1H-pyrazole-5-carboxamido)-3,4-dihydro-5-oxa-1,2a-diazaacenaphthylene-7-carboxamide] | 0.83 | 1.27 |  | inactive
7 | CCn1nc(C)c(Br)c1C(=O)Nc1nc2cc(C(N)=O)cc3c2n1CC(C)(C)CO3 [Example 46, 1-(4-Bromo-1-ethyl-3-methyl-1H-pyrazole-5-carboxamido)-8,8-dimethyl-8,9-dihydro-7H-6-oxa-2,9a-diazabenzo[cd]azulene-4-carboxamide] | 1.41 | 2.12 | > 5.6 | 
8 | CCn1nc(C)cc1C(=O)Nc1nc2cc(C(N)=O)cc3c2n1CC(F)(F)CO3 [Example 53, 1-(1-Ethyl-3-methyl-1H-pyrazole-5-carboxamido)-8,8-difluoro-8,9-dihydro-7H-6-oxa-2,9a-diazabenzo[cd]azulene-4-carboxamide] | 1.53 | 2.42 | > 22.7 | 
9 | CC[C@H]1COc2cc(C(N)=O)cc3nc(NC(=O)c4c(F)c(C)nn4CC)n1c23 [Example 47, (S)-3-Ethyl-2-(1-ethyl-4-fluoro-3-methyl-1H-pyrazole-5-carboxamido)-3,4-dihydro-5-oxa-1,2a-diazaacenaphthylene-7-carboxamide] | 6.91 | 27.64 | > 5.2 | 

Now from value to molecule:

Row | Fold change related to DMSO control, WT (STING variants (WT)) [fold] | Fold change related to DMSO control, HAQ (STING variants (HAQ)) [fold] | EC50 (STING) [µM] | hIFNβ ELISA (EC50, μM) (STING) | SMILES
10 | 1.22 | 1.13 | > 21.6 |  | CCn1nc(C)cc1C(=O)Nc1nc2cc(C(N)=O)cc3c2n1CC1(COC1)CO3 [Example 59, 1-(1-Ethyl-3-methyl-1H-pyrazole-5-carboxamido)-7H,9H-6-oxa-2,9a-diazaspiro[benzo[cd]azulene-8,3′-oxetan]-1,2a,2a^1(5a),4-tetraene-4-carboxamide]
11 | 2.10 | 15.19 | > 16.7 |  | CCn1nc(C)c(F)c1C(=O)Nc1nc2cc(C(N)=O)cc3c2n1[C@@H](C)CCO3 [Example 63, (S)-1-(1-ethyl-4-fluoro-3-methyl-1H-pyrazole-5-carboxamido)-9-methyl-8,9-dihydro-7H-6-oxa-2,9a-diazabenzo[cd]azulene-4-carboxamide]
12 | 7.90 | 49.72 | 14.9 |  | CCn1nc(C)cc1C(=O)Nc1nc2cc(C(N)=O)cc3c2n1CC(C)(C)CN3 [Example 67, 1-(1-Ethyl-3-methyl-1H-pyrazole-5-carboxamido)-8,8-dimethyl-6,7,8,9-tetrahydro-2,6,9a-tri azabenzo[cd]azulene-4-carboxamide]
13 | 9.81 | 67.23 | 4.7 |  | CCn1nc(C)cc1C(=O)Nc1nc2cc(C(N)=O)cc3c2n1CC(C)(C)CN3C [Example 68, 1-(1-Ethyl-3-methyl-1H-pyrazole-5-carboxamido)-6,8,8-trimethyl-6,7,8,9-tetrahydro-2,6,9a-triazabenzo[cd]azulene-4-carboxamide]
14 | 1.34 | 3.59 |  | inactive | CCn1nc(C)cc1C(=O)Nc1nc2cc(C(N)=O)cc3c2n1CCCO3 [Example 57, 1-(1-Ethyl-3-methyl-1H-pyrazole-5-carboxamido)-8,9-dihydro-7H-6-oxa-2,9a-diazabenzo[cd]azulene-4-carboxamide]
15 | 1.06 | 0.95 | > 50 |  | CCn1nc(C)cc1C(=O)Nc1nc2cc(C(N)=O)cc3c2n1[C@@H](CO)CO3 [Example 58, (S)-2-(1-ethyl-3-methyl-1H-pyrazole-5-carboxamido)-3-(hydroxymethyl)-3,4-dihydro-5-oxa-1,2a-diazaacenaphthylene-7-carboxamide]
16 | 1.53 | 5.84 | > 12.8 |  | CCn1nc(C)c(F)c1C(=O)Nc1nc2cc(C(N)=O)cc3c2n1CC1(CC1)CO3 [Example 64, 1-(1-ethyl-4-fluoro-3-methyl-1H-pyrazole-5-carboxamido)-7,9-dihydrospiro[6-oxa-2,9a-diazabenzo[cd]azulene-8,1′-cyclopropane]-4-carboxamide]
17 | 1.84 | 13.40 | > 27.2 |  | CCn1nc(C)cc1C(=O)Nc1nc2cc(C(N)=O)cc3c2n1[C@@H](C)CCO3 [Example 62, (S)-1-(1-ethyl-3-methyl-1H-pyrazole-5-carboxamido)-9-methyl-8,9-dihydro-7H-6-oxa-2,9a-diazabenzo[cd]azulene-4-carboxamide]
18 | 2.97 | 18.10 | > 17.6 |  | CCn1nc(C)cc1C(=O)Nc1nc2cc(C(N)=O)cc3c2n1C[C@H](C)CO3 [Example 71, (S)-1-(1-Ethyl-3-methyl-1H-pyrazole-5-carboxamido)-8-methyl-8,9-dihydro-7H-6-oxa-2,9a-diazabenzo[cd]azulene-4-carboxamide]
19 | 7.69 | 74.83 | 7.6 |  | CCN1CC(C)(C)Cn2c(NC(=O)c3cc(C)nn3CC)nc3cc(C(N)=O)cc1c32 [Example 69, 6-Ethyl-1-(1-ethyl-3-methyl-1H-pyrazole-5-carboxamido)-8,8-dimethyl-6,7,8,9-tetrahydro-2,6,9a-triazabenzo[cd]azulene-4-carboxamide]
20 | 7.15 | 71.56 | 2.8 |  | CCn1nc(C)c(F)c1C(=O)Nc1nc2cc(C(N)=O)cc3c2n1CCCN3C [Example 66, 1-(1-Ethyl-4-fluoro-3-methyl-1H-pyrazole-5-carboxamido)-6-methyl-6,7,8,9-tetrahydro-2,6,9a-triazabenzo[cd]azulene-4-carboxamide]
